Experimental data: patent publication US11396497B2, “Proteasome inhibitors” (New Mexico Tech University Research Park Corporation, priority 2018, dated 2022)
Like-named read-outs stand apart in the source and are kept apart here.

How the values were obtained:
[1] = molecular target: T1, chymotrypsin-like activity of the 26S proteasome (Homo sapiens, UniProt P28074); assay: Proteasome assay, chymotrypsin-like (ChT-L) activity, Suc-LLVY-AMC, Jurkat cell lysate; format: biochemical; conditions: ± S.D., read-out: Proteasome Inhibition ChT-like IC50
T1 construct: endogenous in cells; host or cells: Jurkat (ATCC TIB-152, E6-1 clone) cell lysate
T1 sequence (P28074 60-263): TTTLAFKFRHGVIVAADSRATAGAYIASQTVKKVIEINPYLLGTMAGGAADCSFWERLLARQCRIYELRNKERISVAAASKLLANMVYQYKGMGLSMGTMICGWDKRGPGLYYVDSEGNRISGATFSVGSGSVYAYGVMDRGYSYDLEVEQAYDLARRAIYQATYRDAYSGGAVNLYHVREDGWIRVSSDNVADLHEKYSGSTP
Protocol: (§1) The lysate was stored at −80° C. until the sample was used for the proteasome assay.
(§2) The compounds were diluted with lysis buffer; 10 μL of the compound-containing solution was added to the test wells at ten times the final concentration. […] The results are reported as the average of at least 3 technical replicates of IC50 values for proteasome inhibition.

[2] = molecular target: T2, trypsin-like activity of the 26S proteasome (Homo sapiens, UniProt Q99436); assay: Proteasome assay, trypsin-like (T-L) activity, SUC-RLR-AMC, Jurkat cell lysate; format: biochemical; conditions: Table 3, P2/P3 analogues; ± S.D.; read-out: Proteasome Inhibition T-L-like IC50
T2 construct: endogenous in cells; host or cells: Jurkat (ATCC TIB-152, E6-1 clone) cell lysate
T2 sequence (Q99436 44-277): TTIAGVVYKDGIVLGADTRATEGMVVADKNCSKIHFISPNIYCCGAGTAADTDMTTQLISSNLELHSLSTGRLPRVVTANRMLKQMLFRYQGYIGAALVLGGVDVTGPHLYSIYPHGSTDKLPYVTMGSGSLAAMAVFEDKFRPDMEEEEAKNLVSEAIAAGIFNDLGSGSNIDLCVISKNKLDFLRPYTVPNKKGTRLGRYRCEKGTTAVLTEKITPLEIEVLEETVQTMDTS
Protocol: as §1, §2

MCF7 cells [3] = tested on: MCF7 cells
MDA-MB-231 cells [4] = tested on: MDA-MB-231 cells
Protocol: (§4) The cells were incubated at 37° C. in a humidified atmosphere with 5% CO2.
(§5) 100 μL of cells were added to each well of a 96 well microtiter plate at a concentration of 4×10^4 cells/mL and incubated overnight to allow proper adhesion. (RPMI 8226 cells were plated at 4×10^5 cells/mL). The cells were treated with the panel of test compounds at a series of concentrations, along with vehicle control DMSO and untreated cells as controls. After 48 h incubation, 20 μL of MTT reagent (3-(4,5-dimethylthiazol-2-yl)-2,5-diphenyltetrazolium bromide) in PBS (5 mg/mL) was added to each well of the plates. The plate was incubated for 2 h at 37° C. For adherent cell lines, the media was removed from each well of the plate and the resulting formazan crystals dissolved in 100 μL of DMSO. For RPMI 8226 cells, 200 ul of DMF/SDS mix (50% DMF. 10% w/v SDS pH<4) was used to solubilize the formazan crystals. Optical density (OD) at 490 nm was measured using a microplate reader. Cells treated with 1 μM phenyl arsine oxide (PAO) served as a positive cell-killing control. Technical replicates of these assays were performed in biological quadruplicate, and the three best values were used for analysis in order to eliminate outliers. Data presented are the average IC50 value calculated from at least 3 technical replicates with the corresponding standard deviation.

RPMI 8226 cells [5] = tested on: RPMI 8226 cells
Protocol: as §4, §5

[6] = tested on: cancer cells (MCF7, MDA-MB-231, RPMI 8226)
Protocol: as §5

[7] = molecular target: T3, yeast proteasome yβ1 subunit (Saccharomyces cerevisiae, UniProt P25043+P38624); assay: Subunit selectivity, purified yeast proteasome yβ1; format: biochemical
T3 construct: measured using 8 μg/mL of purified yCP or iCP
Protocol: as §2
(§3) Values and standard deviations were calculated from an assay performed in biological triplicate.

[8] = molecular target: T4, yeast proteasome yβ2 subunit (Saccharomyces cerevisiae, UniProt P25043+P25451); assay: Subunit selectivity, purified yeast proteasome yβ2; format: biochemical
T4 construct: measured using 8 μg/mL of purified yCP or iCP
Protocol: as §2, §3

[9] = molecular target: T5, yeast proteasome yβ5 subunit (Saccharomyces cerevisiae, UniProt P23724+P30656); assay: Subunit selectivity, purified yeast proteasome yβ5; format: biochemical
T5 construct: measured using 8 μg/mL of purified yCP or iCP
Protocol: as §2, §3

[10] = molecular target: T6, immunoproteasome iβ5 subunit (Homo sapiens, UniProt P20618+P28062); assay: Subunit selectivity, purified immunoproteasome iβ5; format: biochemical; conditions: 8 μg/mL purified iCP; ± SD; read-out: iβ5 IC50
T6 construct: purchased Enzo Life Sciences
Protocol: as §2, §3

MCF7 cells [11] = assay: MTT assay cytotoxicity MCF7; conditions: Homo sapiens
RPMI 8226 cells [12] = assay: MTT assay cytotoxicity RPMI 8226; conditions: Homo sapiens
Protocol: as §4, §5

MDA-MB-231 cells [13] = assay: MTT assay cytotoxicity MDA-MB-231; conditions: Homo sapiens
Protocol: as §4, §5

[14] = tested on: cancer cells (MCF7, MDA-MB-231, RPMI 8226); assay: MTT cytotoxicity, cell line not given
[15] = MCF7, 48 h, read-out: Cytotoxicity MCF7 IC50
[16] = RPMI-8226, 48 h, read-out: Cytotoxicity RPMI 8226 IC50
[17] = MDA-MB-231, 48 h, read-out: Cytotoxicity MDA-MB-231 IC50

| Structure (SMILES) | IC50 [2] [nM] | IC50 [7] [nM] | IC50 [8] [nM] | IC50 [9] [nM] | IC50 [10] [nM] | IC50 (MCF7 cells [11]; [15]) [nM] | IC50 (RPMI 8226 cells [12]; [16]) [nM] | IC50 (MDA-MB-231 cells [13]; [17]) [nM] | further results |
| --- | --- | --- | --- | --- | --- | --- | --- | --- | --- |
| CC[C@H](C)[C@@H]1C(=O)O[C@H]1C(=O)N[C@H](C(=O)N[C@@H](CC(C)C)C(=O)OCc1ccccc1)C(C)C [Compound 10i, Benzyl((2R,3S)-3-((S)-sec-butyl)-4-oxooxetane-2-carbonyl)-L-valyl-L-leucinate] | 1350 ± 172 |  |  |  |  |  |  |  | IC50 ([1]; Table 3, P2/P3 analogues): 7.8 ± 1.6 nM; IC50 (MCF7 cells [3]): 351 ± 31 nM; IC50 (MDA-MB-231 cells [4]): 287 ± 136 nM; IC50 (RPMI 8226 cells [5]): 156 ± 96 nM; cytotoxicity IC50 for all three cell lines tested (in words) [6]: midrange nanomolar |
| CC[C@H](C)[C@@H]1C(=O)O[C@H]1C(=O)N[C@H](C(=O)N[C@@H](COCc1ccccc1)C(=O)OCc1ccccc1)C(C)C [Compound 10k, Benzyl O-benzyl-N-(((2R,3S)-3-((S)-sec-butyl)-4-oxooxetane-2-carbonyl)-L-valyl)-L-serinate] | 1340 ± 334 | 17800 ± 2070 | > 50000 | 24.5 ± 3.9 | 9.1 ± 2.7 | 284 ± 132 | 50 ± 28 | 90 ± 51 | IC50 (MCF7 cells [11]; MCF7, read-out: Cytotoxicity MCF7 IC50): 178 ± 23.4 nM; IC50 (RPMI 8226 cells [12]; RPMI-8226, read-out: Cytotoxicity RPMI 8226 IC50): 40.5 ± 1.66 nM; IC50 (MDA-MB-231 cells [13]; MDA-MB-231, read-out: Cytotoxicity MDA-MB-231 IC50): 75.6 ± 3.49 nM; cytotoxicity IC50 for all three cell lines tested (in words) [14]: midrange nanomolar; times less cytotoxic than carfilzomib [14]: about 10 times |
| CC[C@H](C)[C@@H]1C(=O)O[C@H]1C(=O)N[C@H](C(=O)N[C@H](C(=O)NCc1ccccc1)C(C)C)C(C)C [Compound 11e, (2R,3S)—N—((S)-1-(((S)-1-(benzylamino)-3-methyl-1-oxobutan-2-yl)amino)-3-methyl-1-oxobutan-2-yl)-3-((S)-sec-butyl)-4-oxooxetane-2-carboxamide] |  | 1380 ± 106 | 2920 ± 210 | 5.4 ± 0.5 |  | 814 ± 121 | 387 ± 177 | 742 ± 212 | IC50 ([1]; Table 4, P4 analogues): 4.5 ± 2.9 nM |
| CC(C)C1C(=O)OC1C(=O)N[C@H](C(=O)N[C@H](C(=O)O)C(C)C)C(C)C (some centres unmarked) [CysB, Cystargolide B, reference compound] |  |  |  |  | 681 ± 177 |  |  |  | IC50 ([7]; 8 μg/mL purified yCP, ± SD, read-out: yβ1 IC50): 10200 ± 780 nM; IC50 ([8]; 8 μg/mL purified yCP, ± SD, read-out: yβ2 IC50): 61600 ± 4840 nM |
